Tested on: D. melanogaster nAChRs
Assay: Comparison of agonist activity between nAChRs expressed in X. laevis oocytes (one-way ANOVA, Kruskal-Wallis)
Assay type: cell-based
How it was run: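 Agonist pEC50 values, derived from Hill fits of normalised peak currents, were compared across receptors by one-way ANOVA or Kruskal-Wallis. Currents came from oocytes clamped at −100 mV and perfused with atropine-containing saline (0.5 μM), 3–4 days after cRNA injection of fly nAChR subunits and co-factors.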

[1] = Dα1/Dα2/Dα3/Dβ1/Dβ2 vs. Dα1/Dα2/Dβ1/Dβ2/Dβ3
[2] = Dα1/Dα2/Dα3/Dβ1/Dβ2 vs. Dα1/Dα3/Dα4/Dβ1/Dβ2
[3] = Dα1/Dα2/Dα3/Dβ1/Dβ2 vs. Dα1/Dα3/Dβ1/Dβ2/Dβ3
[4] = Dα1/Dα2/Dα3/Dβ1/Dβ2 vs. Dα2/Dα3/Dα4/Dβ1/Dβ2
[5] = Dα1/Dα2/Dα3/Dβ1/Dβ2 vs. Dα2/Dα3/Dβ1/Dβ2/Dβ3
[6] = Dα1/Dα2/Dα3/Dβ1 vs. Dα1/Dα2/Dα3/Dβ1/Dβ2
[7] = Dα1/Dα2/Dα3/Dβ1 vs. Dα1/Dα2/Dβ1/Dβ2
[8] = Dα1/Dα2/Dα3/Dβ1 vs. Dα1/Dα3/Dβ1/Dβ2
[9] = Dα1/Dα2/Dα3/Dβ1 vs. Dα1/Dβ1/Dβ2
[10] = Dα1/Dα2/Dα3/Dβ1 vs. Dα2/Dα3/Dβ1/Dβ2
[11] = Dα1/Dα2/Dα3/Dβ1 vs. Dα3/Dβ1/Dβ2
[12] = Dα1/Dα2/Dβ1/Dβ2 vs. Dα1/Dα2/Dα3/Dβ1/Dβ2
[13] = Dα1/Dα2/Dβ1/Dβ2 vs. Dα2/Dα3/Dβ1/Dβ2
[14] = Dα1/Dα2/Dβ1 vs. Dα1/Dα2/Dα3/Dβ1
[15] = Dα1/Dα2/Dβ1 vs. Dα1/Dα2/Dα3/Dβ1/Dβ2
[16] = Dα1/Dα2/Dβ1 vs. Dα1/Dα2/Dβ1/Dβ2
[17] = Dα1/Dα2/Dβ1 vs. Dα1/Dα3/Dβ1/Dβ2
[18] = Dα1/Dα2/Dβ1 vs. Dα2/Dα3/Dβ1/Dβ2
[19] = Dα1/Dα3/Dβ1/Dβ2 vs. Dα1/Dα2/Dα3/Dβ1/Dβ2
[20] = Dα1/Dα3/Dβ1/Dβ2 vs. Dα1/Dα2/Dβ1/Dβ2
[21] = Dα1/Dα3/Dβ1/Dβ2 vs. Dα2/Dα3/Dβ1/Dβ2
[22] = Dα1/Dα3/Dβ1 vs. Dα1/Dα2/Dα3/Dβ1
[23] = Dα1/Dα3/Dβ1 vs. Dα1/Dα2/Dα3/Dβ1/Dβ2
[24] = Dα1/Dα3/Dβ1 vs. Dα1/Dα2/Dβ1/Dβ2
[25] = Dα1/Dα3/Dβ1 vs. Dα1/Dα3/Dβ1/Dβ2
[26] = Dα1/Dα3/Dβ1 vs. Dα2/Dα3/Dβ1/Dβ2
[27] = Dα1/Dβ1/Dβ2 vs. Dα1/Dα2/Dα3/Dβ1/Dβ2
[28] = Dα1/Dβ1/Dβ2 vs. Dα1/Dα2/Dβ1/Dβ2

## O=[N+]([O-])NC1=NCCN1Cc1ccc(Cl)nc1 [Imidacloprid, imidacloprid]
Dα1/Dα2/Dα3/Dβ1/Dβ2 vs. Dα1/Dα2/Dα4/Dβ1/Dβ2
  Difference of Imax values, nAChRs compared: -0.030
[1]
  Difference of Imax values, nAChRs compared: 0.062
  Difference of pEC50 values, nAChRs compared: 0.21
[2]
  Difference of Imax values, nAChRs compared: 0.041
  Difference of pEC50 values, nAChRs compared: -0.83
[3]
  Difference of Imax values, nAChRs compared: 0.002
  Difference of pEC50 values, nAChRs compared: -1.25
[4]
  Difference of Imax values, nAChRs compared: 0.115
  Difference of pEC50 values, nAChRs compared: -0.93
[5]
  Difference of Imax values, nAChRs compared: 0.121
  Difference of pEC50 values, nAChRs compared: -1.28
[6]
  Difference of Imax values: -0.048
  Difference of pEC50 values: 0.61
[7]
  Difference of Imax values: -0.071
  Difference of pEC50 values: 0.63
[8]
  Difference of Imax values: -0.236
  Difference of pEC50 values: -0.44
[9]
  Difference of Imax values: 0.018
  Difference of pEC50 values: 0.09
[10]
  Difference of Imax values: -0.031
  Difference of pEC50 values: 0.08
[11]
  Difference of Imax values: 0.055
  Difference of pEC50 values: -1.20
[12]
  Difference of Imax values: 0.023
  Difference of pEC50 values: -0.02
[13]
  Difference of Imax values: 0.040
  Difference of pEC50 values: -0.55
[14]
  Difference of Imax values: -0.063
  Difference of pEC50 values: -0.37
[15]
  Difference of Imax values: -0.111
  Difference of pEC50 values: 0.24
[16]
  Difference of Imax values: -0.134
  Difference of pEC50 values: 0.26
[17]
  Difference of Imax values: -0.299
  Difference of pEC50 values: -0.81
Dα1/Dα2/Dβ1 vs. Dα1/Dβ1/Dβ2
  Difference of Imax values: -0.045
  Difference of pEC50 values: -0.28
Dα1/Dα2/Dβ1 vs. Dα2/Dα3/Dβ1
  Difference of Imax values: -0.070
  Difference of pEC50 values: -0.17
[18]
  Difference of Imax values: -0.094
  Difference of pEC50 values: -0.29
Dα1/Dα2/Dβ1 vs. Dα3/Dβ1/Dβ2
  Difference of Imax values: -0.008
  Difference of pEC50 values: -1.57
[19]
  Difference of Imax values: 0.188
  Difference of pEC50 values: 1.05
[20]
  Difference of Imax values: 0.165
  Difference of pEC50 values: 1.07
[21]
  Difference of Imax values: 0.205
  Difference of pEC50 values: 0.52
[22]
  Difference of Imax values: 0.076
  Difference of pEC50 values: 0.50
[23]
  Difference of Imax values: 0.028
  Difference of pEC50 values: 1.11
Dα1/Dα3/Dβ1 vs. Dα1/Dα2/Dβ1
  Difference of Imax values: 0.139
  Difference of pEC50 values: 0.87
[24]
  Difference of Imax values: 0.005
  Difference of pEC50 values: 1.13
[25]
  Difference of Imax values: -0.160
  Difference of pEC50 values: 0.06
Dα1/Dα3/Dβ1 vs. Dα1/Dβ1/Dβ2
  Difference of Imax values: 0.094
  Difference of pEC50 values: 0.59
Dα1/Dα3/Dβ1 vs. Dα2/Dα3/Dβ1
  Difference of Imax values: 0.069
  Difference of pEC50 values: 0.70
[26]
  Difference of Imax values: 0.045
  Difference of pEC50 values: 0.58
Dα1/Dα3/Dβ1 vs. Dα3/Dβ1/Dβ2
  Difference of Imax values: 0.131
  Difference of pEC50 values: -0.70
[27]
  Difference of Imax values: -0.066
  Difference of pEC50 values: 0.52
[28]
  Difference of Imax values: -0.089
  Difference of pEC50 values: 0.54
